Assay results from patent US20230322724A1, “HETEROCYCLIC COMPOUNDS AS CBP/EP300 BROMODOMAIN INHIBITORS” (AURIGENE ONCOLOGY LIMITED, priority 2020, published 2023).

Tests used:
Format in all cases: binding
[1] = target: T1, recombinant P300 bromodomain (Homo sapiens, UniProt Q09472); assay: P300 TR-FRET displacement assay; details: dose-response, read-out: IC50 (group A, B, C)
T1 construct: recombinant P300 bromodomain obtained from BPS Bioscience, USA; purchased BPS Bioscience, USA
T1 sequence (Q09472 1049-1156 limits assumed): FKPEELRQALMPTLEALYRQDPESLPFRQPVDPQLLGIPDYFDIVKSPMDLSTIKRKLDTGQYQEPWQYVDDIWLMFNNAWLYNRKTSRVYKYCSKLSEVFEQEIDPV
Procedure: The potency of compounds to inhibit P300 enzyme was tested in a TR-FRET displacement assay using recombinant P300 bromodomain obtained from BPS Bioscience, USA. The assay buffer was 50 mM HEPES (pH 7.5), 50 mM NaCl, 0.008% Brij 35, 0.01% BSA, 1 mM TCEP. 50 nM of P300 & 500 nM of Biotinylated ligand was incubated at room temperature for 30 minutes, the reaction was initiated by adding the pre-incubated enzyme ligand mixture to the test compounds. After 60 min incubation, the reaction was stopped by the addition of stop mix containing 1 nM of LANCE Europium-anti-6xHis antibody (Perkin Elmer, USA) and 40 nM of Sure Light Allophycocyanin-Streptavidin (Perkin Elmer, USA). Fluorescence emission of the samples at 665 and 615 nm were measured at an excitation of 340 nm and their ratio was plotted against the compound concentrations to generate dose-response curve.
(§1) Selected compounds of the present invention were screened in the above-mentioned assay procedures and IC50 values were determined by fitting the dose-response data to sigmoidal curve fitting equation using Graph pad prism software V7.

[2] = target: T2, recombinant CREBBP bromodomain (Homo sapiens, UniProt Q92793); assay: CBP TR-FRET displacement assay; details: for inhibition at 10 µM: compound at 10 μM; for IC50: dose-response, read-out: IC50 (group A, B, C)
T2 construct: recombinant CREBBP bromodomain obtained from BPS Bioscience, USA; purchased BPS Bioscience, USA
T2 sequence (Q92793 1085-1192 limits assumed): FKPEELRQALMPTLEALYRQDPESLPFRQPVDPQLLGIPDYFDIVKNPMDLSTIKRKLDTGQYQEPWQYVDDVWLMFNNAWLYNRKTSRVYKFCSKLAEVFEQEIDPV
In short: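 CREBBP bromodomain (50 nM) preincubated 30 min at room temperature with 500 nM biotinylated ligand in HEPES pH 7.5 buffer with TCEP, then 60 min with compound. Eu-anti-His/APC-streptavidin TR-FRET 665/615 nm ratio read; IC50 from sigmoidal dose-response fit.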

[3] = target: T3, recombinant BRD4 FL bromodomain (Homo sapiens, UniProt O60885); assay: BRD4 FL TR-FRET displacement assay; details: BRD4 FL; for IC50: dose-response, read-out: IC50 (group A, B, C); for inhibition at 10 µM: compound at 10 μM, read-out: % Inhibition (10 μM)
T3 construct: fused on or other part: 6xHis tag, inferred from detection with Mab ANTI 6HIS-XL665
Procedure: The potency of compounds to inhibit BRD4 FL enzyme was tested in a TR-FRET displacement assay using recombinant BRD4 FL bromodomain obtained In-house. The assay buffer was 50 mM HEPES (pH 7.5), 50 mM NaCl, 500 μM CHAPS. 10 nM of BRD4 FL & 300 nM of Biotinylated Acetyl histone H4 (Lys 5, 8, 12, 16) (Millipore, USA) was incubated at room temperature for 30 minutes, the reaction was initiated by adding the pre-incubated enzyme ligand mixture to the test compounds. After 30 min incubation, the reaction was stopped by the addition of stop mix containing 1 nM of Europium Streptavidin cryptate (Cisbio, USA) and 5 nM of Mab ANTI 6HIS-XL665 (Cisbio, USA) dilutes in assay buffer containing 2.4M Potassium Fluoride. Fluorescence emission of the samples at 665 and 615 nm were measured at an excitation of 340 nm and their ratio was plotted against the compound concentrations to generate dose-response curve. The percent inhibition of the test compounds is calculated using the ratio of enzyme activity controls.
as §1

| Structure (SMILES) | IC50 [1] [nM] | inhibition at 10 µM [2] [%] | IC50 [2] [nM] | IC50 [3] [nM] | inhibition at 10 µM [3] [%] |
| --- | --- | --- | --- | --- | --- |
| Cc1cc2c(N3CCN(C)c4cc(-c5cnn(C)c5)c(C#N)cc43)cc(OCC3CCCN(C)C3)cc2n(C)c1=O (single isomer, unassigned) [Example 247, 4-(1,3-Dimethyl-7-((1-methylpiperidin-3-yl)methoxy)-2-oxo-1,2-dihydroquinolin-5-yl)-1-methyl-7-(1-methyl-1H-pyrazol-4-yl)-1,2,3,4-tetrahydroquinoxaline-6-carbonitrile] | < 25 | 95 | < 50 |  |  |
| COc1cc(N2CCN(C)c3cc(-c4cnn(C)c4)c(C#N)cc32)c2cc(C)c(=O)n(C)c2c1 [Example 1, 4-(7-Methoxy-1,3-dimethyl-2-oxo-1,2-dihydroquinolin-5-yl)-1-methyl-7-(1-methyl-1H-pyrazol-4-yl)-1,2,3,4-tetrahydroquinoxaline-6-carbonitrile] | < 25 | 99 | < 50 |  |  |
| Cc1cc2c(N3CCN(C)c4cc(-c5cnn(C)c5)c(C#N)cc43)cccc2[nH]c1=O [Example 2, 1-methyl-7-(1-methyl-1H-pyrazol-4-yl)-4-(3-methyl-2-oxo-1,2-dihydroquinolin-5-yl)-1,2,3,4-tetrahydroquinoxaline-6-carbonitrile] | < 25 |  | < 50 |  |  |
| Cc1cc2c(N3CCN(C)c4cc(-c5cnn(C)c5)c(C#N)cc43)cc(OCC(=O)OC(C)(C)C)cc2n(C)c1=O [Example 3, Tert-butyl 2-((5-(7-cyano-4-methyl-6-(1-methyl-1H-pyrazol-4-yl)-3,4-dihydroquinoxalin-1(2H)-yl)-1,3-dimethyl-2-oxo-1,2-dihydroquinolin-7-yl)oxy)acetate] | > 50000 |  | > 10 |  |  |
| COc1ccc(CN2CCN(c3cc(OC)cc4c3cc(C)c(=O)n4C)c3cc(C#N)c(-c4cnn(C)c4)cc32)cc1 [Example 8, 4-(7-methoxy-1,3-dimethyl-2-oxo-1,2-dihydroquinolin-5-yl)-1-(4-methoxybenzyl)-7-(1-methyl-1H-pyrazol-4-yl)-1,2,3,4-tetrahydroquinoxaline-6-carbonitrile] | > 50000 |  | > 10 |  |  |
| COc1cc(N2CCN(C)c3cc(-c4ccnn4C)c(C#N)cc32)c2cc(C)c(=O)n(C)c2c1 [Example 9] | < 25 |  | < 50 |  |  |
| COc1cc(N2CCN(C)c3cc(-n4cc(C)cn4)c(C#N)cc32)c2cc(C)c(=O)n(C)c2c1 [Example 10] | 25 to 50 |  | < 50 |  |  |
| CNC(=O)c1ccc(-c2cc3c(cc2C#N)N(c2cc(OC)cc4c2cc(C)c(=O)n4C)CCN3C)cn1 [Example 11] | < 25 |  | < 50 |  |  |
| COc1cc(N2CCN(C)c3cc(-c4c(C)nn(C)c4C)c(C#N)cc32)c2cc(C)c(=O)n(C)c2c1 [Example 12] | < 25 |  | < 50 |  |  |
| COc1cc(N2CC(C)N(C)c3cc(-c4cnn(C)c4)c(C#N)cc32)c2cc(C)c(=O)n(C)c2c1 (stereo not drawn) [Example 13] | < 25 |  | < 50 |  |  |
| COc1cc(N2CCN(C)c3cc(-c4ccn(C)n4)c(C#N)cc32)c2cc(C)c(=O)n(C)c2c1 [Example 14] | < 25 |  | < 50 |  |  |
| COc1cc(N2CCN(C)c3cc(-c4cccnc4)c(C#N)cc32)c2cc(C)c(=O)n(C)c2c1 [Example 15] | 25 to 50 |  | < 50 |  |  |
| COc1cc(N2CCN(C)c3cc(-c4cnc(O)nc4)c(C#N)cc32)c2cc(C)c(=O)n(C)c2c1 [Example 16] | < 25 |  | < 50 |  |  |
| COc1cc(N2CCN(C)c3cc(C4=CCN(C)CC4)c(C#N)cc32)c2cc(C)c(=O)n(C)c2c1 [Example 17] | > 50000 |  | < 50 |  |  |
| COc1cc(N2CCN(C)c3cc(N4CCOCC4)c(C#N)cc32)c2cc(C)c(=O)n(C)c2c1 [Example 18] | 25 to 50 |  | < 50 |  |  |
| COc1cc(N2CCN(C)c3cc(N4CCN(C)CC4)c(C#N)cc32)c2cc(C)c(=O)n(C)c2c1 [Example 19] | 25 to 50 |  | < 50 |  |  |
| CC(=O)N1CCN(c2cc3c(cc(C)c(=O)n3C)c(N3CCCc4cc(-c5cnn(C)c5)c(C(F)F)cc43)n2)CC1 [Example 200, 7-(4-Acetylpiperazin-1-yl)-5-(7-(difluoromethyl)-6-(1-methyl-1H-pyrazol-4-yl)-3,4-dihydroquinolin-1(2H)-yl)-1,3-dimethyl-1,6-naphthyridin-2(1H)-one] |  |  | < 50 | 2010 to 5000 |  |
| CNC(=O)C1CCN(c2cc3c(cc(C)c(=O)n3C)c(N3CCN(C)c4cc(-c5cnn(C)c5)ncc43)n2)C1 (stereo not drawn) [Example 205] |  |  | 51 to 100 |  | 43 |
| Cc1cc2c(N3CCCc4cc(-c5cnn(C)c5)c(C(F)F)cc43)nc(N3CCC(O)C3)cc2n(C)c1=O (stereo not drawn) [Example 208] |  |  | < 50 | 2010 to 5000 |  |
| Cc1cc2c(N3CCCc4cc(-c5cnn(C)c5)c(C(F)F)cc43)nc(N3CC4CCC(C3)O4)cc2n(C)c1=O [Example 217] |  |  | < 50 |  | 46 |
| Cc1cc2c(N3CCCc4cc(-c5cnn(C)c5)c(C(F)F)cc43)nc(N3C4CCC3COC4)cc2n(C)c1=O [Example 218] |  |  | < 50 | 2010 to 5000 |  |
| Cc1cc2c(N3CCCc4cc(-c5cnn(C)c5)c(C(F)F)cc43)nc(N3C[C@@H]4C[C@H]3CO4)cc2n(C)c1=O [Example 219] |  |  | < 50 | 2010 to 5000 |  |
| Cc1cc2c(N3CCN(C)c4cc(-c5cnn(C)c5)ncc43)nc(N3CC4(COC4)C3)cc2n(C)c1=O [Example 220] |  |  | > 10 | 2010 to 5000 |  |
| Cc1cc2c(N3CCCc4cc(-c5nnn(C)n5)c(C(F)F)cc43)nc(N3CCOCC3)cc2n(C)c1=O [Example 226] |  |  | 51 to 100 | 2010 to 5000 |  |
| Cc1cc2c(N3CCCc4ccc(C(F)F)cc43)nc(N3CCC(O)C3)cc2n(C)c1=O (stereo not drawn) [Example 230] |  |  | > 10 |  | 21 |
| COc1cc2c(cc(C)c(=O)n2C)c(N2CCCc3cc(-c4cnn(C)c4)c(C(F)F)cc32)n1 [Example 233, 5-(7-(Difluoromethyl)-6-(1-methyl-1H-pyrazol-4-yl)-3,4-dihydroquinolin-1(2H)-yl)-7-methoxy-1,3-dimethyl-1,6-naphthyridin-2(1H)-one] |  |  | 51 to 100 | 2010 to 5000 |  |
| Cc1cc2c(N3CCCc4cc(-c5cnn(C)c5)c(C(F)F)cc43)nc(C3=CCOCC3)cc2n(C)c1=O [Example 241, 5-(7-(Difluoromethyl)-6-(1-methyl-1H-pyrazol-4-yl)-3,4-dihydroquinolin-1(2H)-yl)-7-(3,6-dihydro-2H-pyran-4-yl)-1,3-dimethyl-1,6-naphthyridin-2(1H)-one] |  |  | 51 to 100 |  | 22 |
| CC1Cc2c(cc(N3CC[C@@H](O)C3)nc2N2CCCc3cc(-c4cnn(C)c4)c(C(F)F)cc32)N(C)C1=O (stereo partly drawn) [Example 243, 5-(7-(Difluoromethyl)-6-(1-methyl-1H-pyrazol-4-yl)-3,4-dihydroquinolin-1(2H)-yl)-7-((R)-3-hydroxypyrrolidin-1-yl)-1,3-dimethyl-3,4-dihydro-1,6-naphthyridin-2(1H)-one] |  |  | > 10 | 2010 to 5000 |  |
| Cc1cc2c(N3CCCc4cc(-c5cnn(C)c5)c(O)cc43)nc(N3CCC(O)C3)cc2n(C)c1=O (stereo not drawn) [Example 245, 5-(7-Hydroxy-6-(1-methyl-1H-pyrazol-4-yl)-3,4-dihydroquinolin-1(2H)-yl)-7-(3-hydroxypyrrolidin-1-yl)-1,3-dimethyl-1,6-naphthyridin-2(1H)-one] |  |  | < 50 | 2010 to 5000 |  |
